# Tested on: back skin of hairless mouse (HR-1) applied with oleic acid
# Assay: Test for Parakeratosis-Inhibiting Effect (oleic acid applied on the back of hairless mouse; rough skin visual score and parakeratosis value)
# Assay type: in vivo
# Conditions: 3.0 mass % sample after 10 mass % oleic acid, 3 days; control = 2.0
# Description: 3 mass % test compound aqueous solution (containing 30 mass % ethanol) was primarily prepared as a sample solution. The pH was adjusted with hydrochloric acid or sodium hydroxide so as to be 7.0 to 7.5. When the solubility of test compound was low, the sample solution was prepared depending on the solubility.
# 100 μl of 10 mass % oleic acid solution (solvent: ethanol) was applied on the back of a hairless mouse (HR-1; Hoshino Laboratory Animals), and then 100 μl of the sample solution was applied thereon. […] In the evaluation, the condition of the skin on which the control (control aqueous solution) was applied set a score of 2.0 and the skin condition without roughness set a score of 0.0. Then, the skin condition was scored by visual observation in increments of 0.25 between them. At the same time, the stratum corneum at the back of the hairless mouse was peeled off with tape, the nuclei were stained by hematoxylin, and the degree of parakeratosis was observed and evaluated using a parakeratosis value within a range of 1.0 to 3.0 (in 0.25 increments). The higher the value is, the more the number of nucleated cell in the stratum corneum is, i.e., the more the parakeratosis is advanced.
# The evaluation was conducted according to the plan which was approved in the in-house council on animal experiment, complying with Act on Welfare and Management of Animals and other related acts.
row,Structure (SMILES),Parakeratosis value (Average for 5 mice)
1,N=C(N)NC(CCC(=O)O)C(=O)O (racemic) [N-amidino-DL-glutamic acid],1.2
2,"NC(=O)NCCC[C@H](N)C(=O)O [Citrulline, reference compound]",2.0
3,"CC(=O)N[C@@H](CCC(N)=O)C(=O)O [N-acetyl-L-glutamine, reference compound]",1.9
4,N=C(N)N[C@H](CCC(=O)O)C(=O)O [N-amidino-D-glutamic acid],1.2
5,Cl.N=C(N)N[C@@H](CCC(=O)O)C(=O)O [N-amidino-L-glutamic acid hydrochloride],1.1
6,N=C(N)N[C@@H](CCC(=O)O)C(=O)O [N-amidino-L-glutamic acid],1.1
7,N=C(N)N[C@@H](CCC(=O)[O-])C(=O)[O-].[Na+].[Na+] [Sodium N-amidino-L-glutamate],1.1

# Same assay, conditions: 3 mass % sample after 10 mass % oleic acid, 3 days; tape-stripped stratum corneum, hematoxylin; higher = more parakeratosis; control = 2.0
row,Structure (SMILES),Parakeratosis value (Average for 4 mice)
1,CNC(CCC(=O)O)C(=O)O (racemic) [N-methyl-DL-glutamic acid],0.9
2,"CC(=O)N[C@@H](CCC(=O)O)C(=O)O [N-acetyl-L-glutamic acid, reference compound]",1.2
3,"CC(=O)N[C@@H](CCC(N)=O)C(=O)O [N-acetyl-L-glutamine, reference compound]",1.9
4,O=C(O)CC[C@H](NC(=O)OCc1ccccc1)C(=O)O [N-benzyloxycarbonyl-L-glutamic acid],0.9
5,NC(=O)N[C@@H](CCC(=O)O)C(=O)O [N-carbamoyl-L-glutamic acid],0.7
6,CN[C@@H](CCC(=O)O)C(=O)O [N-methyl-L-glutamic acid],0.8

# Same assay, conditions: 3 mass % sample after 10 mass % oleic acid, back of hairless mouse, 3 days; rough skin (desquamation and erythema) score, control = 2.0, no roughness = 0.0
row,Structure (SMILES),Visual observation value (Average for 4 mice)
1,CNC(CCC(=O)O)C(=O)O (racemic) [N-methyl-DL-glutamic acid],0.9
2,"CC(=O)N[C@@H](CCC(=O)O)C(=O)O [N-acetyl-L-glutamic acid, reference compound]",1.2
3,"CC(=O)N[C@@H](CCC(N)=O)C(=O)O [N-acetyl-L-glutamine, reference compound]",1.9
4,O=C(O)CC[C@H](NC(=O)OCc1ccccc1)C(=O)O [N-benzyloxycarbonyl-L-glutamic acid],0.9
5,NC(=O)N[C@@H](CCC(=O)O)C(=O)O [N-carbamoyl-L-glutamic acid],0.7
6,CN[C@@H](CCC(=O)O)C(=O)O [N-methyl-L-glutamic acid],0.8

# Same assay, conditions: 3 mass %, hairless mouse, oleic acid
Structure (SMILES),effect of inhibiting parakeratosis (Tables 1 and 2),effects of inhibiting rough skin such as desquamation and erythema caused by unsaturated fatty acids (text on Table 1)
N=C(N)NC(CCC(=O)O)C(=O)O (racemic) [N-amidino-DL-glutamic acid],lowered the parakeratosis value,–
CNC(CCC(=O)O)C(=O)O (racemic) [N-methyl-DL-glutamic acid],–,showed the effects of inhibiting rough skin
"NC(=O)NCCC[C@H](N)C(=O)O [Citrulline, reference compound]",did not show such effects,–
"CC(=O)N[C@@H](CCC(=O)O)C(=O)O [N-acetyl-L-glutamic acid, reference compound]",inferior to those of the compounds of the present invention,–
"CC(=O)N[C@@H](CCC(N)=O)C(=O)O [N-acetyl-L-glutamine, reference compound]",did not show such effects,did not show such effects
N=C(N)N[C@H](CCC(=O)O)C(=O)O [N-amidino-D-glutamic acid],lowered the parakeratosis value,–
Cl.N=C(N)N[C@@H](CCC(=O)O)C(=O)O [N-amidino-L-glutamic acid hydrochloride],lowered the parakeratosis value,–
N=C(N)N[C@@H](CCC(=O)O)C(=O)O [N-amidino-L-glutamic acid],lowered the parakeratosis value,–
O=C(O)CC[C@H](NC(=O)OCc1ccccc1)C(=O)O [N-benzyloxycarbonyl-L-glutamic acid],–,showed the effects of inhibiting rough skin
NC(=O)N[C@@H](CCC(=O)O)C(=O)O [N-carbamoyl-L-glutamic acid],–,showed the effects of inhibiting rough skin
CN[C@@H](CCC(=O)O)C(=O)O [N-methyl-L-glutamic acid],–,showed the effects of inhibiting rough skin
N=C(N)N[C@@H](CCC(=O)[O-])C(=O)[O-].[Na+].[Na+] [Sodium N-amidino-L-glutamate],lowered the parakeratosis value,–

# Tested on: back skin of hairless mice (HR-1) applied with oleic acid
# Assay: Test for Ameliorating Effect to Rough Skin Induced by Applying Oleic Acid (TEWL)
# Assay type: in vivo
# Conditions: 3 mass % sample after 10 mass % oleic acid, 3 days, average of four mice; higher = worse rough skin; control = 12.0
# Description: The difference was compared with the control (control aqueous solution), and the effect was determined. […] The TEWL was measured using TEWA Meter TM210 (Courage+Khazaka Electronic GmBH).
# 100 μl of 10 mass % oleic acid solution (solvent: ethanol) was applied on the back of hairless mice (HR-1, four mice per group), and then 100 μl of the sample solution was applied thereon. The day after this procedure was continued for 3 days, the TEWL value of the back was measured, and the average value of the four mice was calculated. The higher the TEWL value is, the worse rough skin becomes.
row,Structure (SMILES),TEWL value
1,CNC(CCC(=O)O)C(=O)O (racemic) [N-methyl-DL-glutamic acid],7.9
2,"CC(=O)N[C@@H](CCC(=O)O)C(=O)O [N-acetyl-L-glutamic acid, reference compound]",10.1
3,"CC(=O)N[C@@H](CCC(N)=O)C(=O)O [N-acetyl-L-glutamine, reference compound]",13.2
4,O=C(O)CC[C@H](NC(=O)OCc1ccccc1)C(=O)O [N-benzyloxycarbonyl-L-glutamic acid],6.8
5,NC(=O)N[C@@H](CCC(=O)O)C(=O)O [N-carbamoyl-L-glutamic acid],6.4
6,CN[C@@H](CCC(=O)O)C(=O)O [N-methyl-L-glutamic acid],6.4

# Same assay, conditions: 3 mass %, hairless mice, oleic acid
row,Structure (SMILES),ΔTEWL value compared with the control aqueous solution (text on Table 3)
1,CNC(CCC(=O)O)C(=O)O (racemic) [N-methyl-DL-glutamic acid],significantly lowered the ΔTEWL value
2,"CC(=O)N[C@@H](CCC(=O)O)C(=O)O [N-acetyl-L-glutamic acid, reference compound]",inferior to that of the compounds of the present invention
3,"CC(=O)N[C@@H](CCC(N)=O)C(=O)O [N-acetyl-L-glutamine, reference compound]",did not show such effects
4,O=C(O)CC[C@H](NC(=O)OCc1ccccc1)C(=O)O [N-benzyloxycarbonyl-L-glutamic acid],significantly lowered the ΔTEWL value
5,NC(=O)N[C@@H](CCC(=O)O)C(=O)O [N-carbamoyl-L-glutamic acid],significantly lowered the ΔTEWL value
6,CN[C@@H](CCC(=O)O)C(=O)O [N-methyl-L-glutamic acid],significantly lowered the ΔTEWL value

# Tested on: cheek of sensory person (who has sensitive skin)
# Assay: Sensory Irritation Test
# Assay type: in vivo, human
# Conditions: 3 mass % sample aqueous solution, 1 mL on cheek, ten minutes, n=2 (Table 4)
# Description: Then, the irritating sensation was evaluated every 30 seconds for ten minutes immediately after the application, and a final evaluation was reported (n=2). The evaluation of the irritating sensation was based on the following rating criteria in four levels, and each average rating was calculated to be classified by the following criteria.
# 3: The test cannot be continued because of extremely strong irritation such as tingly, burning, prickly, and itching sensation. 2: The use is intolerable because of strong irritation such as tingly, burning, prickly, and itching sensation. 1: The use is tolerable though slight irritation such as tingly, burning, prickly, and itching sensation is felt. 0: The irritation is not particularly felt.
# A: Average rating is less than 0.2 B: Average rating is 0.2 or greater to less than 1.0 C: Average rating is 1.0 or greater to less than 2.0 D: Average rating is 2.0 or greater
row,Structure (SMILES),Evaluation (sensory irritation)
1,CNC(CCC(=O)O)C(=O)O (racemic) [N-methyl-DL-glutamic acid],A (Average rating is less than 0.2)
2,O=C(O)CC[C@H](NC(=O)OCc1ccccc1)C(=O)O [N-benzyloxycarbonyl-L-glutamic acid],A (Average rating is less than 0.2)
3,NC(=O)N[C@@H](CCC(=O)O)C(=O)O [N-carbamoyl-L-glutamic acid],A (Average rating is less than 0.2)
4,CN[C@@H](CCC(=O)O)C(=O)O [N-methyl-L-glutamic acid],A (Average rating is less than 0.2)
5,"NCCCC(=O)O [γ-aminobutyric acid, reference compound]",C (Average rating is 1.0 or greater to less than 2.0)

# Same assay, conditions: 3.0 mass % sample aqueous solution, 1 mL on cheek, ten minutes, n=2 (Table 5)
row,Structure (SMILES),Evaluation (sensory irritation)
1,N=C(N)NC(CCC(=O)O)C(=O)O (racemic) [N-amidino-DL-glutamic acid],A (Average rating is less than 0.2)
2,N=C(N)N[C@H](CCC(=O)O)C(=O)O [N-amidino-D-glutamic acid],A (Average rating is less than 0.2)
3,Cl.N=C(N)N[C@@H](CCC(=O)O)C(=O)O [N-amidino-L-glutamic acid hydrochloride],A (Average rating is less than 0.2)
4,N=C(N)N[C@@H](CCC(=O)O)C(=O)O [N-amidino-L-glutamic acid],A (Average rating is less than 0.2)
5,N=C(N)N[C@@H](CCC(=O)[O-])C(=O)[O-].[Na+].[Na+] [Sodium N-amidino-L-glutamate],A (Average rating is less than 0.2)
6,"NCCCC(=O)O [γ-aminobutyric acid, reference compound]",C (Average rating is 1.0 or greater to less than 2.0)

# Same assay, conditions: 3 mass %, test subject with sensitive skin
row,Structure (SMILES),sensory irritation (Tables 4 and 5)
1,N=C(N)NC(CCC(=O)O)C(=O)O (racemic) [N-amidino-DL-glutamic acid],had no problem in sensory irritation
2,CNC(CCC(=O)O)C(=O)O (racemic) [N-methyl-DL-glutamic acid],had no problem in sensory irritation
3,N=C(N)N[C@H](CCC(=O)O)C(=O)O [N-amidino-D-glutamic acid],had no problem in sensory irritation
4,Cl.N=C(N)N[C@@H](CCC(=O)O)C(=O)O [N-amidino-L-glutamic acid hydrochloride],had no problem in sensory irritation
5,N=C(N)N[C@@H](CCC(=O)O)C(=O)O [N-amidino-L-glutamic acid],had no problem in sensory irritation
6,O=C(O)CC[C@H](NC(=O)OCc1ccccc1)C(=O)O [N-benzyloxycarbonyl-L-glutamic acid],had no problem in sensory irritation
7,NC(=O)N[C@@H](CCC(=O)O)C(=O)O [N-carbamoyl-L-glutamic acid],had no problem in sensory irritation
8,CN[C@@H](CCC(=O)O)C(=O)O [N-methyl-L-glutamic acid],had no problem in sensory irritation
9,N=C(N)N[C@@H](CCC(=O)[O-])C(=O)[O-].[Na+].[Na+] [Sodium N-amidino-L-glutamate],had no problem in sensory irritation
10,"NCCCC(=O)O [γ-aminobutyric acid, reference compound]",resulted in giving sensory irritation

# Tested on: IL-1α production in human normal keratinocytes
# Assay: Inhibiting Effect of Increased Production of Inflammatory Cytokine Caused by Oleic Acid
# Assay type: cell-based
# Conditions: 10 μM oleic acid + 500 μM test compound, 8 hours; solvent 4.7 ± 1.5; p < 0.01 vs. oleic acid
# Description: LTD., were incubated using KGM culture medium in a 75 cm^2 flask for 3 days. The cells were trypsinized according to a normal method, collected, and then inoculated into a 24 well plate (Corning Inc.) so as to be 40,000 cells per 0.5 ml of KGM culture medium. After incubation for another 3 days, oleic acid, or oleic acid and test compound, were added thereto. […] As a control, ethanol was added instead of oleic acid. After 8 hours, each culture was collected, and the amount of IL-1α was measured with a quantification kit (from R&D systems).
row,Structure (SMILES),"IL-lα (pmol/ml, Mean ± S.D.) [pmol/mL]"
1,"CCNC(=O)CC[C@H](NC(C)=O)C(=O)NCC [N-acetyl-N′,N″-diethyl-L-glutamic acid-1,5-diamide]",225.5 ± 3.2

# Same assay, conditions: 10 μM oleic acid alone, 8 hours; solvent (ethanol) 4.7 ± 1.5
row,Structure (SMILES),"IL-lα (pmol/ml, Mean ± S.D.) [pmol/mL]"
1,"CCCCCCCC/C=C\CCCCCCCC(=O)O [oleic acid, reference compound]",239.8 ± 1.3

# Same assay, conditions: 10 μM oleic acid, 500 μM (0.012%) compound
row,Structure (SMILES),inhibition of the increased production of IL-1α caused by oleic acid (Table 6)
1,"CCNC(=O)CC[C@H](NC(C)=O)C(=O)NCC [N-acetyl-N′,N″-diethyl-L-glutamic acid-1,5-diamide]",significantly inhibits the increased production of IL-1α
